From ChEMBL document CHEMBL4651402, “Screening of ~5500 FDA-approved drugs and clinical candidates for anti-SARS-CoV-2 activity” (2021)

Tested on: SARS-CoV-2
Test: microbe, parasite or virus in culture
Conditions: Severe acute respiratory syndrome coronavirus 2, Vero C1008, 48 h

Q: Which IC50 does the source give for `Cc1cc(O)c2c(c1)C(=O)c1cc(O)cc(O)c1C2=O` [EMODIN] here?
A: > 20 µM

Q: And the IC50 (read-out: pIC50 (converted))?
A: > 20 µM

Q: For `CC(C(N)C(=O)NC(C(=O)O)C1OC(n2ccc(=O)[nH]c2=O)C(O)C1O)C(O)c1ccc(O)cn1` (stereo unspecified), which IC50 is on record?
A: > 20 µM

Q: And the IC50 (read-out: pIC50 (converted))?
A: > 20 µM

Q: What does the source list for `CC(=O)Oc1cc(OC(C)=O)c2c(c1)O[C@H](c1ccc(OC(C)=O)c(OC(C)=O)c1)[C@@H](OC(C)=O)C2` [CATECHIN PENTAACETATE]?
A: IC50: > 20 µM; IC50 (read-out: pIC50 (converted)): > 20 µM

Q: How did the IC50 turn out when `CCOC(=O)c1ncn2c1CN(C)C(=O)c1cc(F)ccc1-2` [FLUMAZENIL] was run?
A: > 20 µM

Q: And the IC50 (read-out: pIC50 (converted))?
A: > 20 µM

Q: With `CC[N+](C)(C)CCC(C(N)=O)(c1ccccc1)c1ccccc1` [AMBUTONIUM] as the compound, how does the IC50 read?
A: > 20 µM

Q: What about the IC50 (read-out: pIC50 (converted)) of the same compound?
A: > 20 µM

Q: Which IC50 does the source give for `OCc1ccc(Cl)cc1Cl` [DICHLOROBENZYL ALCOHOL] here?
A: > 20 µM

Q: What about the IC50 (read-out: pIC50 (converted)) of the same compound?
A: > 20 µM

Q: Which results are given for `O=C(Nc1cccc2c(=O)cc(-c3nnn[nH]3)oc12)c1ccc(OCCCCc2ccccc2)cc1`?
A: IC50: > 100 µM; IC50 (read-out: pIC50 (converted)): > 100 µM

Q: How did the IC50 turn out when `[N-]=[N+]=CC(=O)CC[C@H](N)C(=O)O` [6-DIAZO-5-OXO-L-NORLEUCINE] was run?
A: > 20 µM

Q: What about the IC50 (read-out: pIC50 (converted)) of the same compound?
A: > 20 µM

Q: `O=C(O)C1(C(=O)O)CCC1` was tested. Which IC50 did it give?
A: > 20 µM

Q: What about the IC50 (read-out: pIC50 (converted)) of the same compound?
A: > 20 µM

Q: `CCC1(C2=NCCN2)Cc2ccccc2O1` (stereo unspecified) [EFAROXAN] was tested. Which IC50 did it give?
A: > 20 µM

Q: What about the IC50 (read-out: pIC50 (converted)) of the same compound?
A: > 20 µM

Q: `O=C(NCCN1CCOCC1)c1ccc(Cl)cc1` [MOCLOBEMIDE] was tested. Which IC50 did it give?
A: > 20 µM

Q: What about the IC50 (read-out: pIC50 (converted)) of the same compound?
A: > 20 µM

Q: How did the IC50 turn out when `O=c1ccn([C@@H]2O[C@H](CO)[C@@H](O)[C@@H]2O)c(=O)[nH]1` [ARAURIDINE] was run?
A: > 20 µM

Q: And the IC50 (read-out: pIC50 (converted))?
A: > 20 µM

Q: What does the source list for `Cc1[nH]cnc1CSCCNc1nc(=O)c(Cc2ccc3c(c2)OCO3)c[nH]1` [OXMETIDINE]?
A: IC50: > 20 µM; IC50 (read-out: pIC50 (converted)): > 20 µM

Q: Which results are given for `COc1ccc(Cc2nccc3cc(OC)c(OC)cc23)cc1OC` [PAPAVERINE]?
A: IC50: > 20 µM; IC50 (read-out: pIC50 (converted)): > 20 µM

Q: How did the IC50 turn out when `CCc1ccc(OCc2ccccc2C(=O)Nc2ccc3nc(C)cc(N)c3c2)cc1` was run?
A: > 20 µM

Q: And the IC50 (read-out: pIC50 (converted))?
A: > 20 µM

Q: How did the IC50 turn out when `CCC(C(=O)O)c1ccc(-c2ccccc2)cc1` (stereo unspecified) [XENBUCIN] was run?
A: > 20 µM

Q: And the IC50 (read-out: pIC50 (converted))?
A: > 20 µM

Q: With `C[N+]1(C)CCC(=C(c2ccccc2)c2ccccc2)CC1` as the compound, how does the IC50 read?
A: > 20 µM

Q: And the IC50 (read-out: pIC50 (converted))?
A: > 20 µM

Q: Which results are given for `CCCCN(CCCC)CCNc1nc(-c2ccccc2)no1` [BUTALAMINE]?
A: IC50: > 20 µM; IC50 (read-out: pIC50 (converted)): > 20 µM

Q: For `C[N+]1(C)CCC(OC(=O)C(O)(c2ccccc2)c2ccccc2)CC1` [PARAPENZOLATE], which IC50 is on record?
A: > 20 µM

Q: What about the IC50 (read-out: pIC50 (converted)) of the same compound?
A: > 20 µM

Q: What does the source list for `Cc1cc2c(F)c(Oc3ncnn4cc(OC[C@@H](C)OC(=O)[C@H](C)N)c(C)c34)ccc2[nH]1` [BRIVANIB ALANINATE]?
A: IC50: > 20 µM; IC50 (read-out: pIC50 (converted)): > 20 µM

Q: For `CC(C)CN(C[C@@H](O)[C@H](Cc1ccccc1)NC(=O)[C@H](CC(N)=O)NC(=O)c1ccc2ccccc2n1)C(=O)NC(C)(C)C`, which IC50 is on record?
A: > 20 µM

Q: And the IC50 (read-out: pIC50 (converted))?
A: > 20 µM

Q: How did the IC50 turn out when `CN(CC(=O)O)C(=N)N` [CREATINE] was run?
A: > 20 µM

Q: What about the IC50 (read-out: pIC50 (converted)) of the same compound?
A: > 20 µM

Q: Which results are given for `CCCCCCCCCCCCCCCCCCCCCC(=O)O` [BEHENIC ACID]?
A: IC50: > 20 µM; IC50 (read-out: pIC50 (converted)): > 20 µM

Q: With `O=C1CCN2C(=C1C(=O)NC1CCN(CCCn3c(=O)[nH]c4ccccc43)CC1)Nc1ccccc12` as the compound, how does the IC50 read?
A: > 20 µM

Q: What about the IC50 (read-out: pIC50 (converted)) of the same compound?
A: > 20 µM

Q: How did the IC50 turn out when `CC(C)NCC(O)c1cc(O)cc(O)c1` (stereo unspecified) was run?
A: > 20 µM

Q: And the IC50 (read-out: pIC50 (converted))?
A: > 20 µM

Q: With `C[N+]1([O-])[C@@H]2C[C@@H](OC(=O)[C@H](CO)c3ccccc3)C[C@H]1[C@@H]1O[C@@H]12` (stereo partly specified) as the compound, how does the IC50 read?
A: > 20 µM

Q: And the IC50 (read-out: pIC50 (converted))?
A: > 20 µM

Q: With `c1ccc(-c2cc(CCC3CCNCC3)c3ccccc3n2)cc1` [PIPEQUALINE] as the compound, how does the IC50 read?
A: > 20 µM

Q: What about the IC50 (read-out: pIC50 (converted)) of the same compound?
A: > 20 µM

Q: For `COc1cc2nccc(Oc3ccc(NC(=O)C4(C(=O)Nc5ccc(F)cc5)CC4)cc3)c2cc1OC` [CABOZANTINIB], which IC50 is on record?
A: > 20 µM

Q: What about the IC50 (read-out: pIC50 (converted)) of the same compound?
A: > 20 µM

Q: With `CCC(=O)C(CC(C)N1CCOCC1)(c1ccccc1)c1ccccc1` (stereo unspecified) [PHENADOXONE] as the compound, how does the IC50 read?
A: > 20 µM

Q: What about the IC50 (read-out: pIC50 (converted)) of the same compound?
A: > 20 µM

Q: What does the source list for `C#CCN(C)CCCOc1ccc(Cl)cc1Cl` [CLORGILINE]?
A: IC50: > 20 µM; IC50 (read-out: pIC50 (converted)): > 20 µM

Q: Which results are given for `Cc1ccccc1OCC(O)CO` (stereo unspecified) [MEPHENESIN]?
A: IC50: > 20 µM; IC50 (read-out: pIC50 (converted)): > 20 µM

Q: Which results are given for `COc1ccc([C@@H]2CNC(=O)[C@@H](Cc3cccc(C)c3)C2)cc1OC1CCCC1`?
A: IC50: > 20 µM; IC50 (read-out: pIC50 (converted)): > 20 µM

Q: How did the IC50 turn out when `CC(CCc1ccc(O)cc1)NCCc1ccc(O)c(O)c1` (stereo unspecified) [DOBUTAMINE] was run?
A: > 20 µM

Q: What about the IC50 (read-out: pIC50 (converted)) of the same compound?
A: > 20 µM

Q: `CNC(=O)Oc1ccc2c(c1)[C@]1(C)CCN(C)[C@@H]1N2C` [PHYSOSTIGMINE] was tested. Which IC50 did it give?
A: > 20 µM

Q: What about the IC50 (read-out: pIC50 (converted)) of the same compound?
A: > 20 µM

Q: How did the IC50 turn out when `O=P(O)(NCCCl)NCCCl` [PALIFOSFAMIDE] was run?
A: > 20 µM

Q: What about the IC50 (read-out: pIC50 (converted)) of the same compound?
A: > 20 µM

Q: Which IC50 does the source give for `COc1ccc(-c2cc(=O)c3c(O)cc(O)cc3o2)cc1` [ACACETIN] here?
A: > 20 µM

Q: And the IC50 (read-out: pIC50 (converted))?
A: > 20 µM

Q: Which results are given for `CC(=O)NCC1(c2ccccc2)CCN(CC2COc3ccccc3O2)CC1` (stereo unspecified) [ACOXATRINE]?
A: IC50: > 20 µM; IC50 (read-out: pIC50 (converted)): > 20 µM

Q: With `O=c1c(-c2ccccc2)c1-c1ccccc1` [DIPHENCYPRONE] as the compound, how does the IC50 read?
A: > 20 µM

Q: And the IC50 (read-out: pIC50 (converted))?
A: > 20 µM
